Assay results taken from patent publication US9623039B2, “Treatment and prevention of pathological conditions using iduna related techniques and compositions” (VALTED, LLC, priority 2010, dated 2017).
Where a SMILES comes first, the peptide text is derived from it. The star is where a group is joined. Cbz = O=C(OCc1ccccc1)*; CH2F = FC*

Key:
PAR polymer = PAR polymer overlay / dot blot (far western); assay type: binding; details: PAR polymer overlay assay
Source text: PAR binding is specified by a sequence of approximately 20 amino acids containing N-terminal basic amino acids and a C-terminal region containing alternating hydrophobic and basic amino acids (FIG. 24). Iduna contains a predicted PAR polymer binding sequence within amino acids 144-167 of the WWE domain (FIGS. 1 and 24). The PAR-binding domain was defined by comparing to the consensus sequence for PAR-binding and the known PAR binding domain of Histone 3 (FIG. 24). HEK293 cells were transfected with GFP, GFP-Iduna lacking the WWE domain (GFP-IdunaΔWWE), GFP-Iduna lacking the RF domain (GFP-IdunaARF), and full-length GFP-Iduna, followed by immunoprecipitation with a GFP antibody. […] Only GFP-Iduna-ARF and full-length GFP-Iduna can co-immunoprecipiate PAR binding proteins (FIG. 25). The critical amino acids in the PAR binding domain, 156Y and 157R, were mutated to 156A and 157A in full length Iduna (Iduna-YRAA). […] Similar results are obtained with a biotin-tagged PAR polymer followed by detection with an anti-biotin antibody (FIG. 26). […] Histone H3 is a known PAR binding protein and was used as a positive control for the PAR overlay assay. […] An assay based on electrophorectic mobility shift (EMSA) for PAR binding was developed to monitor PAR polymer binding to Iduna. […]

MCF7 cells = assay: Laser micro-irradiation-induced DNA damage, recruitment of GFP-Iduna; assay type: cell-based, human; details: 405 nm laser microirradiation
Experimental: Live-cell imaging and Laser micro-irradiation-induced DNA damage: For induction of localized DNA damage, MCF 7 cells stably expressing GFP-Iduna or GFP-Iduna-YRAA were plated onto 25 mm glass bottom culture dishes for 48 h. Cells were presensitized with 10 μM 5-bromo-2′-deoxyuridine (BrdU, Sigma) for 24 h. Cells were incubated with 2 μM Hoechst (Invitrogen) for 5 min and mounted on a preheated (37° C.) stage on a Zeiss LSM 710 confocal microscope equipped with 405 nm laser source. A laser microbeam was focused on a small rectangular strip of nucleus through 63× oil objective to induce localized DNA damage. The laser setting was set to 100% power output with a scanning speed of 1 and 6-10 laser iterations. The kinetics were calculated using Zeiss Zen 2010 software. Time point before irradiation represents—1 min and the time point just after irradiation represent 0 min. Each data series was normalized with respect to base line data intensity values.

neuronal cultures = assay: Caspase-dependent cell death (camptothecin, staurosporine) in neuronal cultures; assay type: cell-based, mouse; details: for protection against cell death: 24 h
Experimental: FIG. 42—Neuronal cultures expressing lenti-viral mediated GFP, GFP-Iduna or GFP-Iduna-YRAA were treated with camptothecin (CPT, 20 μM) and cell death assessed 24 h later using PI and Hoechst staining. […] Data represent the mean±SEM, n=4 of two independent experiments. *p<0.05 by ANOVA with Tukey-Kramer's posthoc test.
FIG. 43—Neuronal cultures expressing lenti-viral mediated GFP, GFP-Iduna or GFP-Iduna-YRAA were treated with staurosporine (STS, 500 nM) and cell death assessed 24 h later using PI and Hoechst staining. […] Data represent the mean±SEM, n=4 of two independent experiments. *p<0.05 by ANOVA with Tukey-Kramer's posthoc test.
(§1) Cell Death Assessment: Following exposure of neuronal cultures to the various treatments neuronal survival was quantified and presented as percent of cell death. Percent cell death was determined as the ratio of live-to-dead cells compared with the percent cell death in control wells to account for cell death attributable to mechanical stimulation of the cultures. Quantification of neuronal survival was determined by staining treated cultures with 5 μM Hoechst 33342 and 2 μM propidium iodide (PI) (Invitrogen, Carlsbad, Calif.). Culture plates were placed on a mechanized stage of a Zeiss microscope and photomicrographs were collected by a blinded observer. The numbers of total and dead (PI positive) cells were counted by automated computer assisted software (Axiovision 4.6, Zeiss, Germany). The raw counts are presented in an Excel file for generation of percent cell death and statistical analysis. Glial nuclei fluoresce at a lower intensity than neuronal nuclei and were gated out by the software program. At least two separate experiments using four separate wells were performed for all data points.

PARP-1 = target: T1, PARP-1 (Homo sapiens, UniProt P09874); assay: Chemiluminescent PARP assay (biotinylated PAR onto histone); assay type: biochemical; details: incorporation of biotinylated PAR onto histone proteins
T1 construct: purchased Trevigen
Experimental: Because PARP-1 activation plays a prominent role in NMDA excitotoxicity we tested whether PARP-1 activity is directly affected by Iduna. PARP-1 activity was assessed by incorporation of biotinylated PAR onto histone proteins.
Chemiluminescent PARP assay for poly(ADP-ribosyl)ation of Histone H1: Activity of PARP-1 was determined by Trevigen Universal chemiluminescent PARP assay kit (Trevigen, Gaithersburg, Md., USA) in the presence of Iduna or the PARP-1 inhibitor 3-aminobenzamide (3-AB). According to manufacturer's instructions, the incorporation of biotinylated NAD+ (Trevigen) into the poly(ADP-ribose) polymer primed at solid phase immobilized histone H1 (Trevigen) was detected by the chemiluminescent assay, either in the presence or absence of recombinant Iduna. Reactions were performed with 34 μM total biotinylated NAD+ for 60 min at 25° C. in triplicates. Chemiluminescence was measured using a fluorescence multi-well plate reader (SOSTmax, Sunnyvale, Calif.) with an excitation at 544 nm excitation/590 nm emission. In the parallel wells, PARP1 activity was measured after the 3-aminobenzamide treatment at the same concentration of biotinylated NAD+ (34 μM).

primary neurons = assay: H2O2-induced cell death in primary neurons; assay type: cell-based, mouse
Experimental: FIGS. 44 and 45—Iduna protects against peroxide-induced cell death in primary neurons. Primary neuronal cultures were transduced with lentiviruses expressing GFP, GFP-Iduna or GFP-Iduna-YRAA. 4 days following lentiviral transduction, cultures were treated with H2O2 (100 μM or 500 μM) and cell death assessed 24 h later using PI and Hoechst staining.
as §1, with “At least two separate experiments using four separate wells were performed for all data points.” left out

T1 sequence (P09874 whole entry): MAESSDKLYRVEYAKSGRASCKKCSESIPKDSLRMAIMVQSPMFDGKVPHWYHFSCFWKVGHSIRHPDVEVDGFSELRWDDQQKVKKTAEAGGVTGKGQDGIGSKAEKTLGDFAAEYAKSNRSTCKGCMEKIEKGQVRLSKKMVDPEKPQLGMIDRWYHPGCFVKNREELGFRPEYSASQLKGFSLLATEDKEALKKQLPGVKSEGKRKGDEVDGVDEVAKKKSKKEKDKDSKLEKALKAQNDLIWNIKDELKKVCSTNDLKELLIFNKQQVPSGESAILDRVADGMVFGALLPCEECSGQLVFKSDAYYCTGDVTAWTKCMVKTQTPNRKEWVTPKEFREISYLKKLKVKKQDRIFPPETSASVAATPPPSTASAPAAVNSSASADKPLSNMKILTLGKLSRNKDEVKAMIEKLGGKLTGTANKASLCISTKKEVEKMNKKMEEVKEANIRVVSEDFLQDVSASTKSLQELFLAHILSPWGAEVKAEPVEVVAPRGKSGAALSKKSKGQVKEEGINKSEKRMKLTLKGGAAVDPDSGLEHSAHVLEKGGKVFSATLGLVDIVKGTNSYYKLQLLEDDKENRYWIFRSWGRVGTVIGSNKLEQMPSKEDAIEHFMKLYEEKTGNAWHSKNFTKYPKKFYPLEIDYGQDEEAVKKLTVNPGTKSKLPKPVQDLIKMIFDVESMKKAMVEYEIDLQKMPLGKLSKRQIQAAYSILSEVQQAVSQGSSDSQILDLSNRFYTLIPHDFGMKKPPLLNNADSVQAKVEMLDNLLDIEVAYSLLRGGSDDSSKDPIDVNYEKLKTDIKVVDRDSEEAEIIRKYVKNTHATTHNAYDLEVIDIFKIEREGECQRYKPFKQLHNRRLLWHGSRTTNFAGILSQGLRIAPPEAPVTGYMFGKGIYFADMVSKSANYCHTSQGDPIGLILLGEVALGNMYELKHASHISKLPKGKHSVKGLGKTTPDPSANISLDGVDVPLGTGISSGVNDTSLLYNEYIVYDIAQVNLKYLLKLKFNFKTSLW

Iduna 144-167: synthesized peptide fragment of the predicted PAR polymer binding sequence, amino acids 144-167 of the WWE domain (LYVADLENMVQYRRNEHGRRRKIK; UniProt Q9NTX7 144-167, looked up, fragment)
PAR polymer binding (PAR polymer): binds to PAR polymer in a manner comparable to full-length Iduna

CN(C)Cc1ccc(-c2nc3cccc4c3n2CCNC4=O)cc1 [AG14361]
recruitment of GFP-Iduna to laser-induced DNA breaks (MCF7 cells): blocks the translocation of Iduna

COC(=O)C[C@H](NC(=O)[C@H](C)NC(=O)[C@@H](NC(=O)OCc1ccccc1)C(C)C)C(=O)CF [z-VAD fmk] (Cbz-Val-Ala-Asp(OMe)-CH2F)
protection against cell death (neuronal cultures; camptothecin 20 μM): provides protection
apoptotic cell death (neuronal cultures; staurosporine 500 nM or camptothecin 20 μM): inhibited cell death
protection against cell death (neuronal cultures; staurosporine 500 nM): provides protection

NC(=O)c1cccc(N)c1 [3-AB, 3-aminobenzamide, reference compound]
PARP-1 activity (PARP-1): inhibits PARP-1 activity

O=C1NCCc2c(OCCCCN3CCCCC3)cccc21 [DPQ]
protection against H2O2 toxicity (primary neurons; 100 μM H2O2): only protected against 100 μM H2O2 toxicity
protection against H2O2 toxicity (primary neurons; 500 μM H2O2): Neither GFP-Iduna nor DPQ protect
